Laboratory results published in publication PMC6001238, “Iterative Chemical Engineering of Vancomycin Leads to Novel Vancomycin Analogs With a High in Vitro Therapeutic Index” (Frontiers in Microbiology, 2018).
≈ marks a conversion by molar mass, not a printed value. Like-named read-outs stand apart in the source and are kept apart here.

How the values were obtained:
[1] = test system: E. faecalis VSE 1; assay: MIC, broth microdilution, vancomycin-sensitive E. faecalis (VSE 1); format: cell-based, Enterococcus faecalis
Procedure, shortened: (§1)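 Broth microdilution per CLSI; controls = ultrapure water, non-inoculated broth. One set: + vancomycin 10 μM final alongside test analogue/control drug.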

[2] = test system: E. faecalis VRE 6; assay: MIC, broth microdilution, vancomycin-resistant E. faecalis VRE 6 (VanA); format: cell-based, Enterococcus faecalis
Procedure, shortened: as §1

[3] = test system: E. faecalis VRE 53; assay: MIC, broth microdilution, vancomycin-resistant E. faecalis VRE 53 (VanA); format: cell-based, Enterococcus faecalis
Procedure, shortened: as §1

[4] = test system: E. faecalis VRE 29; assay: MIC, broth microdilution, vancomycin-resistant E. faecalis VRE 29 (VanA); format: cell-based, Enterococcus faecalis
Procedure, shortened: as §1

[5] = test system: E. faecalis VRE 37; assay: MIC, broth microdilution, vancomycin-resistant E. faecalis VRE 37 (VanA); format: cell-based, Enterococcus faecalis
Procedure, shortened: as §1

[6] = test system: Murine leukemia (L1210) cells; assay: Cytostatic activity, L1210 cell proliferation; format: cell-based; settings: mean ± SD of three experiments; highest concentration tested 250 µM; 2 days; read-out: Toxicity (IC50) L1210
Procedure, shortened: (§2)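 Suspensions (300,000–500,000 cells/mL) combined with equal volumes of diluted compound; 37°C; L1210 2 d / CEM 3 d / HeLa 4 d; counted by Coulter counter; IC50 vs untreated wells.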

[7] = test system: human T-lymphocyte (CEM) cells; assay: Cytostatic activity, CEM cell proliferation; format: cell-based; settings: mean ± SD of three experiments; highest concentration tested 250 µM; 3 days; read-out: Toxicity (IC50) CEM
Procedure, shortened: as §2

[8] = test system: human cervix carcinoma (HeLa) cells; assay: Cytostatic activity, HeLa cell proliferation; format: cell-based; settings: mean ± SD of three experiments; highest concentration tested 250 µM; 4 days; read-out: Toxicity (IC50) HeLa
Procedure, shortened: as §2

[9] = test system: L1210, CEM and HeLa cell lines; assay: Cytostatic activity, average or summary over L1210, CEM and HeLa; format: cell-based
Procedure, shortened: as §2

[10] = test system: S. aureus VSSA (ATCC 6538); assay: MIC, broth microdilution, vancomycin-sensitive S. aureus (VSSA/MSSA, ATCC 6538); format: cell-based, Staphylococcus aureus
Procedure, shortened: as §1

[11] = test system: S. aureus VISA/HIP5827; assay: MIC, broth microdilution, vancomycin-intermediate S. aureus VISA HIP5827; format: cell-based, Staphylococcus aureus
Procedure, shortened: as §1

[12] = test system: S. aureus VRSA; assay: MIC, broth microdilution, vancomycin-resistant S. aureus (VRSA); format: cell-based, Staphylococcus aureus
Procedure, shortened: as §1

[13] = test system: MRSA KS2; assay: MIC, broth microdilution, MRSA KS2; format: cell-based, Staphylococcus aureus
Procedure, shortened: as §1

[14] = test system: MRSA KS6; assay: MIC, broth microdilution, MRSA KS6; format: cell-based, Staphylococcus aureus
Procedure, shortened: as §1

[15] = test system: MRSA KS89; assay: MIC, broth microdilution, MRSA KS89; format: cell-based, Staphylococcus aureus
Procedure, shortened: as §1

[16] = test system: MRSA KS1; assay: MIC, broth microdilution, MRSA KS1; format: cell-based, Staphylococcus aureus
Procedure, shortened: as §1

[17] = test system: 33 clinical VRE isolates; assay: MIC against a set of 33 clinical VRE isolates (range, MIC50, TI); format: cell-based, Enterococcus faecalis
Procedure, shortened: as §1

[18] = test system: 24 clinical MRSA isolates; assay: MIC against a set of 24 clinical MRSA isolates (range, MIC50, TI); format: cell-based, Staphylococcus aureus
Procedure, shortened: as §1

[19] = test system: Clostridium difficile ATJ ribotype 014/20; assay: MIC, plate drop assay, C. difficile ATJ ribotype 014/20; format: cell-based; settings: C. difficile ATJ ribotype 014/20
Procedure, shortened: (§3)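 Twofold dilution series of test compounds were spotted onto C. difficile lawns in 0.4% BHI agar containing added calcium and magnesium salts. After overnight anaerobic incubation at 37°C, growth inhibition was scored by spot clearing; triplicate runs, ultrapure water negative control.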

[20] = test system: Clostridium difficile AIU ribotype 027; assay: MIC, plate drop assay, C. difficile AIU ribotype 027; format: cell-based; settings: for MIC-fold improvement vs. vancomycin: C. difficile AIU ribotype 027
Procedure, shortened: as §3

[21] = test system: VE 148 (VanB); assay: MIC, VanB-type VRE strain VE 148; format: cell-based, Enterococcus; settings: VE 148, VanB; read-out: MIC
Procedure, shortened: as §1

[22] = test system: VE 149 (VanB); assay: MIC, VanB-type VRE strain VE 149; format: cell-based, Enterococcus; settings: VE 149, VanB; read-out: MIC
Procedure, shortened: as §1

[23] = test system: VE 150 (VanB); assay: MIC, VanB-type VRE strain VE 150; format: cell-based, Enterococcus; settings: VE 150, VanB; read-out: MIC
Procedure, shortened: as §1

[24] = test system: VE 152 (VanB); assay: MIC, VanB-type VRE strain VE 152; format: cell-based, Enterococcus; settings: VE 152, VanB; read-out: MIC
Procedure, shortened: as §1

[25] = test system: VE 157 (VanB); assay: MIC, VanB-type VRE strain VE 157; format: cell-based, Enterococcus; settings: VE 157, VanB; read-out: MIC
Procedure, shortened: as §1

[26] = test system: VE 82 (VanC1); assay: MIC, VanC1-type VRE strain VE 82; format: cell-based, Enterococcus gallinarum; settings: VE 82, VanC1; read-out: MIC
Procedure, shortened: as §1

[27] = test system: MRSA; assay: Minimum bactericidal concentration against MRSA; format: cell-based, Staphylococcus aureus
Procedure: Plates were incubated overnight at 37°C and colony growth was inspected.

## CN[C@H](CC(C)C)C(=O)N[C@H]1C(=O)N[C@@H](CC(N)=O)C(=O)N[C@H]2C(=O)N[C@H]3C(=O)N[C@H](C(=O)N[C@H](C(=O)NCC(=O)Nc4ccc5c(c4)Cc4ccccc4-5)c4cc(O)cc(O)c4-c4cc3ccc4O)[C@H](O)c3ccc(c(Cl)c3)Oc3cc2cc(c3O[C@@H]2O[C@H](CO)[C@@H](O)[C@H](O)[C@H]2O[C@H]2C[C@](C)(N)[C@H](O)[C@H](C)O2)Oc2ccc(cc2Cl)[C@H]1O [Vanc-42]
[1]; Enterococcus faecalis VSE 1 (vancomycin-sensitive), read-out: MIC
  MIC: 0.20 µM (≈ 0.334 µg/mL)
[1]; VSE 1, ratio of MIC of vancomycin and MIC of analogue
  MIC-fold improvement vs. vancomycin: 8
[2]; Enterococcus faecalis VRE 6 (vancomycin-resistant), read-out: MIC
  MIC: 0.78 µM (≈ 1.3 µg/mL)
[2]; VRE 6, ratio of MIC of vancomycin and MIC of analogue
  MIC-fold improvement vs. vancomycin: 256
[3]; Enterococcus faecalis VRE 53 (vancomycin-resistant), read-out: MIC
  MIC: 12.5 µM (≈ 20.9 µg/mL)
[3]; VRE 53, ratio of MIC of vancomycin and MIC of analogue
  MIC-fold improvement vs. vancomycin: 32
[4]; Enterococcus faecalis VRE 29 (vancomycin-resistant), read-out: MIC
  MIC: 1.56 µM (≈ 2.6 µg/mL)
[4]; VRE 29, ratio of MIC of vancomycin and MIC of analogue
  MIC-fold improvement vs. vancomycin: 256
[5]; Enterococcus faecalis VRE 37 (vancomycin-resistant), read-out: MIC
  MIC: 3.13 µM (≈ 5.23 µg/mL)
[5]; VRE 37, ratio of MIC of vancomycin and MIC of analogue
  MIC-fold improvement vs. vancomycin: 128
[6]
  IC50: 177 ± 103 µM
[7]
  IC50: 92 ± 3 µM
[8]
  IC50: > 250 µM
[9]; average IC50 used for TI in Table S5, >250 entered as 250, read-out: IC50
  IC50: 173 µM
[9]; average of L1210, CEM and HeLa, read-out: Toxicity (IC50) Average
  IC50: 173 µM
[10]; Staphylococcus aureus VSSA, read-out: MIC
  MIC: 0.78 µM (≈ 1.3 µg/mL)
[10]; VSSA, ratio of MIC of vancomycin and MIC of analogue
  MIC-fold improvement vs. vancomycin: 1
[11]; Staphylococcus aureus VISA/HIP5827, read-out: MIC
  MIC: 0.78 µM (≈ 1.3 µg/mL)
[11]; VISA/HIP5827, ratio of MIC of vancomycin and MIC of analogue
  MIC-fold improvement vs. vancomycin: 8
[12]; Staphylococcus aureus VRSA, read-out: MIC
  MIC: 1.56 µM (≈ 2.6 µg/mL)
[12]; VRSA, ratio of MIC of vancomycin and MIC of analogue
  MIC-fold improvement vs. vancomycin: 64
[13]; MRSA KS2, ratio of MIC of vancomycin and MIC of analogue
  MIC-fold improvement vs. vancomycin: 4
[13]; Staphylococcus aureus MRSA KS2, read-out: MIC
  MIC: 0.20 µM (≈ 0.334 µg/mL)
[14]; MRSA KS6, ratio of MIC of vancomycin and MIC of analogue
  MIC-fold improvement vs. vancomycin: 4
[14]; Staphylococcus aureus MRSA KS6, read-out: MIC
  MIC: 0.20 µM (≈ 0.334 µg/mL)
[15]; MRSA KS8, ratio of MIC of vancomycin and MIC of analogue
  MIC-fold improvement vs. vancomycin: 4
[15]; Staphylococcus aureus MRSA KS8, read-out: MIC
  MIC: 0.20 µM (≈ 0.334 µg/mL)
[16]; MRSA KS1, ratio of MIC of vancomycin and MIC of analogue
  MIC-fold improvement vs. vancomycin: 2
[16]; Staphylococcus aureus MRSA KS1, read-out: MIC
  MIC: 0.39 µM (≈ 0.651 µg/mL)
[17]; 33 clinical VRE isolates
  MIC Range: 0.39 to 6.25 µM
[17]; in vitro therapeutic index, VRE
  TI (IC50/MIC50): 111
[17]; median MIC, 33 clinical VRE isolates, read-out: MIC50
  MIC50: 1.56 µM (≈ 2.6 µg/mL)
[18]; 24 clinical MRSA isolates
  MIC Range: 0.10 to 0.39 µM
[18]; in vitro therapeutic index, MRSA
  TI (IC50/MIC50): 865
[18]; median MIC, 24 clinical MRSA isolates, read-out: MIC50
  MIC50: 0.20 µM (≈ 0.334 µg/mL)
[19]
  MIC-fold improvement vs. vancomycin: up to 45
[19]; listed as Vanc- 42
  MIC-fold improvement vs. vancomycin: 22
[20]
  MIC-fold improvement vs. vancomycin: ≤ 58
[20]; C. difficile AIU ribotype 027, plate drop assay
  MIC: 0.78 µM (≈ 1.3 µg/mL)
[20]; listed as Vanc- 42
  MIC-fold improvement vs. vancomycin: 58
[21]
  MIC: 3.13 µM (≈ 5.23 µg/mL)
[22]
  MIC: 3.13 µM (≈ 5.23 µg/mL)
[23]
  MIC: 3.13 µM (≈ 5.23 µg/mL)
[24]
  MIC: 3.13 µM (≈ 5.23 µg/mL)
[25]
  MIC: 3.13 µM (≈ 5.23 µg/mL)
[26]
  MIC: 1.56 µM (≈ 2.6 µg/mL)
[27]
  MBC relative to MIC: MBC equaling their MIC values
